Test results: ChEMBL document CHEMBL5154736, “Stereochemically altered cephalosporins as potent inhibitors of New Delhi metallo-β-lactamases” (Eur J Med Chem, 2022)
Converted amounts (≈) assume the structure as drawn. The source made the active and inactive calls. The calls are words filed in the database; no cut-off is given here.

Columns and labels:
[1] = Inhibition of bacterial NDM-1 using CDC-1 as substrate incubated for 30 mins; design: species or system Bacteria
[2] = Inhibition of bacterial IMP-1 using CDC-1 as substrate incubated for 30 mins; design: species or system Bacteria
[3] = Inhibition of bacterial VIM-27 using CDC-1 as substrate incubated for 30 mins; design: species or system Bacteria
[4] = Inhibition of bacterial NDM-12 using CDC-1 as substrate incubated for 30 mins; design: species or system Bacteria
[5] = Inhibition of bacterial NDM-4 using CDC-1 as substrate incubated for 30 mins; design: species or system Bacteria
HEK293 [6] = test: Cytotoxicity against human HEK293 cells at 50 uM and measured by Calcien AM staining method; assay type: toxicity, cell-based; conditions: hek293, 50 µM
[7] = Competitive inhibition of bacterial NDM-1 using CDC-1 as substrate and measured by Dixon plot analysis; design: species or system Bacteria
HEK293 [8] = test: Cytotoxicity against human HEK293 cells at 50 uM and measured by propidium iodide (PI) staining method; assay type: toxicity, cell-based; conditions: hek293, 50 µM
HEK293 [9] = test: Cytotoxicity against human HEK293 cells at 1 to 100 uM and measured by MTT assay; assay type: toxicity, cell-based; conditions: hek293, 100 µM, dose 1-100 µM
Escherichia coli [10] = test: Potentiation of meropenem-induced antibacterial activity against Escherichia coli expressing NDM-1 at 0.25 ug/ml assessed as meropenem MIC by broth microdilution method; assay type: functional; conditions: dose 0.25 µg/ml
[11] = Inhibition of bacterial NDM-3 using CDC-1 as substrate incubated for 30 mins; design: species or system Bacteria
Escherichia coli [12] = test: Potentiation of meropenem-induced antibacterial activity against Escherichia coli expressing NDM-1 at 8 ug/ml assessed as meropenem MIC by broth microdilution method; assay type: functional; conditions: dose 8 µg/ml
[13] = Inhibition of bacterial NDM-13 using CDC-1 as substrate incubated for 30 mins; design: species or system Bacteria
Bacteria = test: Reversible inhibition of bacterial NDM-1 at 10 uM incubated for 30 mins
Escherichia coli [14] = test: Antibacterial activity against Escherichia coli expressing NDM-1 measured by broth microdilution method; assay type: functional

SMILES	IC50 [1]	IC50 [2]	IC50 [3]	other results
CO[C@H]1C(=O)N2C(C(=O)O)=C(CSc3nnnn3C)CS[C@H]12	0.63 µM	20 µM	5.5 µM	–
CO[C@H]1C(=O)N2C(C(=O)O)=C(CSc3ncccn3)CS[C@H]12	0.63 µM	8.8 µM	8.6 µM	–
CO[C@H]1C(=O)N2C(C(=O)O)=C(CSc3ccc(NC(C)=O)cc3)CS[C@H]12	0.2 µM	8.4 µM	5.8 µM	–
O=C(O)C1=C(CSC(=O)c2ccccc2)CS[C@@H]2[C@@H](O)C(=O)N12	0.46 µM	–	–	–
O=C(O)CN(CCN(CC(=O)O)CC(=O)O)CC(=O)O [EDETIC ACID]	0.54 µM	–	–	–
CC(C)O[C@H]1C(=O)N2C(C(=O)O)=C(CSC(=O)c3ccccc3)CS[C@H]12	1.4 µM	–	–	–
CO[C@H]1C(=O)N2C(C(=O)O)=C(C)CS[C@H]12	> 50 µM	–	–	–
O=C(Cc1ccccc1)N[C@@H]1C(=O)N2C(C(=O)O)=C(CSC(=O)c3ccccc3)CS[C@H]12	9.4 µM	–	–	–
CO[C@@]1(NC(=O)Cc2ccccc2)C(=O)N2C(C(=O)O)=C(CSC(=O)c3ccccc3)CS[C@@H]21	9.6 µM	–	–	–
CCO[C@H]1C(=O)N2C(C(=O)O)=C(CSC(=O)c3ccccc3)CS[C@H]12	7.4 µM	4.6 µM	3.6 µM	–
CO[C@H]1C(=O)N2C(C(=O)O)=C(COC(C)=O)CS[C@H]12	0.99 µM	–	–	–
CO[C@H]1C(=O)N2C(C(=O)O)=C(CSc3nc4ccccc4s3)CS[C@H]12	0.13 µM	8 µM	6 µM	IC50 [4]: 0.2 µM; IC50 [5]: 0.21 µM; Activity (HEK293 [6]): Non-Toxic; Ki [7]: 0.21 µM; Activity (HEK293 [8]): Non-Toxic; Activity (HEK293 [9]): Non-Toxic; MIC (Escherichia coli [10]): 32 µg/mL; IC50 [11]: 0.19 µM; MIC (Escherichia coli [12]): 16 µg/mL; IC50 [13]: 0.16 µM; inhibition (Bacteria): Active
CO[C@H]1C(=O)N2C(C(=O)O)=C(CSc3ccc(C(F)(F)F)cc3)CS[C@H]12	0.5 µM	5.5 µM	7.3 µM	–
CCSCC1=C(C(=O)O)N2C(=O)[C@H](OC)[C@H]2SC1	1.2 µM	–	–	–
CO[C@H]1C(=O)N2C(C(=O)O)=C(CSC(=O)c3ccccc3)CS[C@H]12	> 50 µM	7.9 µM	9.1 µM	–
O=C(Cc1ccccc1)N[C@H]1C(=O)N2C(C(=O)O)=C(CSC(=O)c3ccccc3)CS[C@H]12	0.22 µM	–	–	–
CO[C@H]1C(=O)N2C(C(=O)O)=C(CSc3nncs3)CS[C@H]12	1.6 µM	15 µM	8.1 µM	–
CO[C@H]1C(=O)N2C(C(=O)O)=C(C[Se]c3ccccc3)CS[C@H]12	0.19 µM	6.6 µM	6 µM	–
CO[C@H]1C(=O)N2C(C(=O)O)=C(CSc3nnc(C)s3)CS[C@H]12	0.55 µM	16 µM	13 µM	–
CCS[C@H]1C(=O)N2C(C(=O)O)=C(CSC(=O)c3ccccc3)CS[C@H]12	0.31 µM	0.8 µM	5.2 µM	–
CCOC(=O)CSCC1=C(C(=O)O)N2C(=O)[C@H](OC)[C@H]2SC1	0.62 µM	–	–	–
CO[C@H]1C(=O)N2C(C(=O)O)=C(CSC(=O)c3ccccc3)CS(=O)(=O)[C@H]12	> 50 µM	–	–	–
CO[C@H]1C(=O)N2C(C(=O)O)=C(CSc3nc4ccc([N+](=O)[O-])cc4s3)CS[C@H]12	0.76 µM	15 µM	1 µM	–
CO[C@H]1C(=O)N2C(C(=O)O)=C(CSC(=O)c3ccccc3)C[S+]([O-])[C@H]12 (stereo not given in full)	0.25 µM	–	–	–
O=C(O)C1=C(CSc2nc3ccccc3s2)CS[C@@H]2CC(=O)N12	> 50 µM	–	–	–
C[C@@H](O)[C@H]1C(=O)N2C(C(=O)O)=C(S[C@@H]3CN[C@H](C(=O)N(C)C)C3)[C@H](C)[C@H]12 [MEROPENEM]	–	–	–	MIC (Escherichia coli [14]): 0.031 µg/mL (≈ 0.0808 µM)
CO[C@H]1C(=O)N2C(C(=O)O)=C(CSc3ccccc3)CS[C@H]12	2 µM	7.4 µM	8.1 µM	–
O=C(O)C1=C(CSC(=O)c2ccccc2)CS[C@@H]2CC(=O)N12	> 50 µM	–	–	–
